Results as given in EP4570805A1, “TRICYCLIC COMPOUNDS AND MEDICAL USE THEREOF” (Chia Tai Tianqing Pharmaceutical Group Co., Ltd., priority 2022, dated 2024).

Experiments:
AsPc-1 cells = experiment: Inhibitory activity for AsPc-1 cell proliferation (CCK-8); type: cell-based, human
Protocol: AsPc-1 cells in a well-growing state were collected into a centrifuge tube, adjusted to a cell density of 3 × 10^4 cells/mL, and inoculated onto a 96-well plate (100 µL/well). The compounds were added using a nanoliter pipettor such that the final concentrations of the compounds were 5000 nM-0.31 nM (the addition was performed in duplicate). Meanwhile, a control was set. After 72 h of incubation in the cell incubator, the assay reagent CCK-8 (manufacturer: Dojindo Laboratories; 10 µL/well) was added. After 3 h of incubation in the cell incubator, the absorbance was measured at 450 nm on a PerkinElmer Envision microplate reader. A four-parameter analysis was performed, a dose-response curve was fitted, and IC50 was calculated.

Capan-1 cells = experiment: Inhibitory activity for Capan-1 cell proliferation (CCK-8); type: cell-based; conditions: 5 days incubation
Protocol: Capan-1 cells in a well-growing state were collected into a centrifuge tube, adjusted to a cell density of 1.5 × 10^4 cells/mL, and inoculated onto a 96-well plate (100 µL/well). […] Meanwhile, a control was set. After 5 days of incubation in the cell incubator, the assay reagent CCK-8 (manufacturer: Dojindo Laboratories, Beijing; 10 µL/well) was added. After 4 h of incubation in the cell incubator, the absorbance was measured at 450 nm on a PerkinElmer Envision microplate reader. A four-parameter analysis was performed, a dose-response curve was fitted, and IC50 was calculated.

His-KRAS G12D (1-169) = target: T1, His-KRAS G12D (1-169) (Homo sapiens, UniProt P01116, G12D); experiment: Nucleotide exchange assay (SOS1cat-mediated, HTRF); type: biochemical; conditions: room temperature, read-out: Nucleotide exchange inhibitory activity IC50
T1 construct: His-KRAS G12D (1-169)
T1 sequence (P01116 1-169 isoform P01116-2 G12D): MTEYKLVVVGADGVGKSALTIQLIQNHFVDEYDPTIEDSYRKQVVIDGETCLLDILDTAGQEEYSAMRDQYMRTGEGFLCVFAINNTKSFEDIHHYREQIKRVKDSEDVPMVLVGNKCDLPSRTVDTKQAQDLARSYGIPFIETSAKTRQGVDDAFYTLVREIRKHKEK
Protocol: • 1. Reagents: His-KRAS G12D (1-169); SOS1^cat (564-1049); GDP (purchased from Sigma); Anti-6HIS-Cryptate (purchased from Cisbio); EDA-GTP-DY-647P1 (purchased from Jena Bioscience) • 2. Buffer preparation: • 1) assay buffer: HEPES pH 7.4, NaCl, MgCl2, DTT, BSA, and Igepal; • 2) KRAS G12D working solution: A KRAS G12D working solution containing 100 nM His-KRAS G12D and 2 nM Anti-6HIS-Cryptate was prepared using the assay buffer; • 3) SOS1^cat working solution: An SOS1^cat working solution containing 20 nM SOS1^cat and 200 nM EDA-GTP-DY-647P1 was prepared using the assay buffer; • 4) blank control working solution: A blank control solution containing 2 nM Anti-6HIS-Cryptate was prepared using the assay buffer. • 3. Testing procedure: The entire experimental process was completed at room temperature. Using a black clear-bottom 384-well plate, 5 µL of KRAS G12D working solution was added to each well for the experimental and negative groups, while 5 µL of blank control working solution was added to each well for the blank group. The plate was incubated at room temperature for 10 min. Then, the compounds (at an initial concentration of 100 µM, 8 concentration gradients by 1:2 serial dilution) were added to the experimental groups using an ultra microsyringe and incubated at room temperature for 30 min. Finally, 5 µL of SOS1^cat working solution was added to each well, and after incubation at room temperature for 15 min, signal values were detected at 665 nm/620 nm using a PerkinElmer Envision HTS multi-label plate reader. The inhibition rate was calculated by the following formula: inhibition rate (%) = (mean value of negative control group - mean value of experimental group)/(mean value of negative control group - mean value of blank group) × 100%. The curves were fitted using the four-parameter logistic model with the logarithm of the compound concentration as the abscissa and the inhibition rate as the ordinate, and IC 50 values were calculated.

[1] = Homo sapiens, ASPC1, 72 h incubation

SMILES	IC50 (AsPc-1 cells; [1]) [nM]	IC50 (Capan-1 cells; Homo sapiens, CAPAN-1, 120 h) [nM]	further results
C#Cc1c(F)ccc2cc(N)cc(-c3nc4c5c(nc(OCC67CCCN6CC(F)C7)nc5c3F)N(C(C)c3cccnc3N)C(C)CO4)c12 (single isomer, unassigned) [Example 53]	≤ 100	< 100	–
C#Cc1c(F)ccc2cc(N)cc(-c3nc4c5c(nc(OCC67CCCN6CC(F)C7)nc5c3F)N(C(C)c3cccnc3N)C(C)CO4)c12 (single isomer, unassigned) [Example 54]	–	–	IC50 (AsPc-1 cells; 72 h incubation): ≤ 100 nM; IC50 (Capan-1 cells): < 100 nM
C#Cc1c(F)ccc2cc(O)cc(-c3nc4c5c(nc(OC[C@@H]6CCCN6C)nc5c3F)N(C(C)c3cccnc3N)[C@@H](C)CO4)c12 (single isomer, unassigned) [Example 67]	≤ 100	< 100	–
C#Cc1c(F)ccc2cc(O)cc(-c3nc4c5c(nc(OCC6(CN7CCOCC7)CC6)nc5c3F)N(C(C)c3cccnc3N)[C@@H](C)CO4)c12 (single isomer, unassigned) [Example 69]	≤ 100	< 100	–
[2H]C([2H])(Oc1nc2c3c(nc(-c4cc(O)cc5ccc(F)c(C#C)c45)c(F)c3n1)OC[C@H](C)N2C(C)c1cccnc1N)[C@@]12CCCN1C[C@H](F)C2 (single isomer, unassigned) [Example 71]	≤ 100	< 100	–
C#Cc1c(F)ccc2cc(O)cc(-c3nc4c5c(nc(OC[C@@H]6C[C@H](F)CN6C)nc5c3F)N(C(C)c3cccnc3N)[C@@H](C)CO4)c12 (single isomer, unassigned) [Example 105]	≤ 100	< 100	–
[2H]C([2H])(Oc1nc2c3c(nc(-c4cccc5ccc(F)c(C#C)c45)c(F)c3n1)OC[C@H](C)N2C(C)c1cccnc1N)[C@@]12CCCN1C[C@H](F)C2 (single isomer, unassigned) [Example 113]	≤ 100	< 100	–
[2H]C([2H])(Oc1nc2c3c(nc(-c4cccc5ccc(F)c(C#C)c45)c(F)c3n1)OC[C@H](C)N2C(C)c1cccnc1N)[C@@]12CCCN1C[C@H](F)C2 (single isomer, unassigned) [Example 114]	–	–	IC50 (AsPc-1 cells; 72 h incubation): ≤ 100 nM; IC50 (Capan-1 cells): < 100 nM
CC(c1cccnc1N)N1c2nc(OC[C@@]34CCCN3C[C@H](F)C4)nc3c(F)c(-c4cc(O)cc5ccccc45)nc(c23)OC[C@@H]1C (single isomer, unassigned) [Example 118]	≤ 100	< 100	–
CCc1c(F)ccc2cccc(-c3nc4c5c(nc(OC[C@@]67CCCN6C[C@H](F)C7)nc5c3F)N(C(C)c3cccnc3N)[C@@H](C)CO4)c12 (single isomer, unassigned) [Example 122]	≤ 100	< 100	–
CC(c1cccnc1N)N1c2nc(OC[C@@]34CCCN3C[C@H](F)C4)nc3c(F)c(-c4cccc5ccc(F)c(Cl)c45)nc(c23)OC[C@@H]1C (single isomer, unassigned) [Example 124]	≤ 100	< 100	–
C#Cc1cccc2cccc(-c3nc4c5c(nc(OC[C@@]67CCCN6C[C@H](F)C7)nc5c3F)N(C(C)c3cccnc3N)[C@@H](C)CO4)c12 (single isomer, unassigned) [Example 130]	≤ 100	< 100	–
C#Cc1c(F)ccc2cc(O)cc(-c3nc4c5c(nc(OCCN6CCCC6)nc5c3F)N(C(C)c3cccnc3N)[C@@H](C)CO4)c12 (single isomer, unassigned) [Example 138]	≤ 100	< 100	–
C#Cc1c(F)ccc2cc(O)cc(-c3nc4c5c(nc(OC[C@@H]6C[C@@H](F)CN6C)nc5c3F)N(C(C)c3cccnc3N)[C@@H](C)CO4)c12 (single isomer, unassigned) [Example 146]	≤ 100	< 100	–
C#Cc1c(F)ccc2cc(O)cc(-c3nc4c5c(nc(OC[C@@H]6CC(F)(F)CN6C)nc5c3F)N(C(C)c3cccnc3N)[C@@H](C)CO4)c12 (single isomer, unassigned) [Example 148]	≤ 100	< 100	–
C#Cc1c(F)ccc2cc(O)cc(-c3nc4c5c(nc(OCC6(CN(C)C)CC6)nc5c3F)N(C(C)c3cccnc3N)[C@@H](C)CO4)c12 (single isomer, unassigned) [Example 150]	≤ 100	< 100	–
C#Cc1c(F)ccc2cc(O)cc(-c3nc4c5c(nc(N6CC(C)(N(C)C)C6)nc5c3F)N(C(C)c3cccnc3N)[C@@H](C)CO4)c12 (single isomer, unassigned) [Example 156]	≤ 100	< 100	–
C#Cc1c(F)ccc2cc(O)cc(-c3nc4c5c(nc(OCCN6CC(F)C6)nc5c3F)N(C(C)c3cccnc3N)[C@@H](C)CO4)c12 (single isomer, unassigned) [Example 172]	≤ 100	< 100	–

SMILES	IC50 (AsPc-1 cells; [1]) [nM]	IC50 (Capan-1 cells; Homo sapiens, CAPAN-1, 120 h) [nM]	further results
C#Cc1c(F)ccc2cc(O)cc(-c3nc4c5c(nc(OC[C@@]67CCCN6C/C(=C\F)C7)nc5c3F)N(C(C)c3cccnc3N)[C@@H](C)CO4)c12 (single isomer, unassigned) [Example 176]	≤ 100	< 100	–
C#Cc1c(F)ccc2cc(O)cc(-c3nc4c5c(nc(OC[C@@]67CCCN6C/C(=C\F)C7)nc5c3F)N(C(C)c3cccnc3N)[C@@H](C)CO4)c12 (single isomer, unassigned) [Example 177]	–	–	IC50 (AsPc-1 cells; 72 h incubation): ≤ 100 nM; IC50 (Capan-1 cells): < 100 nM
C#Cc1c(F)ccc2cc(O)cc(-c3nc4c5c(nc(OC[C@@]67CCCN6C[C@H](F)C7)nc5c3F)NCCO4)c12 [Example 1]	–	–	IC50 (His-KRAS G12D (1-169)): ≤ 100 nM
C#Cc1c(F)ccc2cc(O)cc(-c3nc4c5c(nc(OCC67CCCN6CC(F)C7)nc5c3F)N(CCN(C)C)CCO4)c12 (stereo not shown) [Example 2]	–	–	IC50 (His-KRAS G12D (1-169)): ≤ 100 nM
C#Cc1c(F)ccc2cc(O)cc(-c3nc4c5c(nc(OC[C@@]67CCCN6C[C@H](F)C7)nc5c3F)N(CC)CCO4)c12 [Example 3]	100 to 500	100 to 500	–
C#Cc1c(F)ccc2cc(O)cc(-c3nc4c5c(nc(OC[C@@]67CCCN6C[C@H](F)C7)nc5c3F)N(CC3CC3)CCO4)c12 [Example 6]	–	–	IC50 (His-KRAS G12D (1-169)): ≤ 100 nM
C#Cc1c(F)ccc2cc(O)cc(-c3nc4c5c(nc(OC[C@@]67CCCN6C[C@H](F)C7)nc5c3F)N(C3CCCC3)CCO4)c12 [Example 7]	–	–	IC50 (His-KRAS G12D (1-169)): ≤ 100 nM
C#Cc1c(F)ccc2cc(O)cc(-c3nc4c5c(nc(OCC67CCCN6CC(F)C7)nc5c3F)N(C)CCO4)c12 (stereo not shown) [Example 9]	–	–	IC50 (His-KRAS G12D (1-169)): ≤ 100 nM
C#Cc1c(F)ccc2cc(O)cc(-c3nc4c5c(nc(OCC67CCCN6CC(F)C7)nc5c3F)N(C3CCC(N)C3)CCO4)c12 (stereo not shown) [Example 10]	–	–	IC50 (His-KRAS G12D (1-169)): 500 to 999 nM
C#Cc1c(F)ccc2cc(O)cc(-c3nc4c5c(nc(OCC67CCCN6CC(F)C7)nc5c3F)N(CC(C)N)CCO4)c12 (stereo not shown) [Example 13]	–	–	IC50 (His-KRAS G12D (1-169)): ≤ 100 nM
C#Cc1c(F)ccc2cc(O)cc(-c3nc4c5c(nc(OCC67CCCN6CC(F)C7)nc5c3F)N(CC(C)N)CCO4)c12 (stereo not shown) [Example 14]	–	–	IC50 (His-KRAS G12D (1-169)): ≤ 100 nM
C#Cc1c(F)ccc2cc(O)cc(-c3nc4c5c(nc(OCC67CCCN6CC(F)C7)nc5c3F)N(C3CCC(O)C3)CCO4)c12 (stereo not shown) [Example 15]	–	–	IC50 (His-KRAS G12D (1-169)): ≤ 100 nM
C#Cc1c(F)ccc2cc(O)cc(-c3nc4c5c(nc(OC[C@@]67CCCN6C[C@H](F)C7)nc5c3F)N(C(C)(C)C)CCO4)c12 [Example 31]	100 to 500	100 to 500	–
C#Cc1c(F)ccc2cc(O)cc(-c3nc4c5c(nc(OC[C@@]67CCCN6C[C@H](F)C7)nc5c3F)N(C(C)c3cccnc3N)CCO4)c12 (stereo partly shown) [Example 34]	≤ 100	< 100	–
C#Cc1c(F)ccc2cc(O)cc(-c3nc4c5c(nc(OC[C@@]67CCCN6C[C@H](F)C7)nc5c3F)N(C(C)c3cccnc3N)[C@@H](C)CO4)c12 (stereo partly shown) [Example 38]	≤ 100	< 100	–
[2H]C([2H])(Oc1nc2c3c(nc(-c4cc(O)cc5ccc(F)c(C#C)c45)c(F)c3n1)OCCN2C(C)c1cccnc1N)[C@@]12CCCN1C[C@H](F)C2 (stereo partly shown) [Example 51]	≤ 100	< 100	–
CC(c1cccnc1N)N1c2nc(OC[C@@]34CCCN3C[C@H](F)C4)nc3c(F)c(-c4cccc5cccc(Cl)c45)nc(c23)OC[C@@H]1C (stereo partly shown) [Example 115]	≤ 100	< 100	–
